The source of these data is publication PMC5086599 (Viruses, 2016).

Read-outs that look alike come from different tables or passages of the source.

By IC50 is commonly meant the midpoint of a concentration-inhibition curve.

The subject of test [1] is HIV-1 WT virus (HXB2) in Hela P4/R5 cells. Nature of the test: HIV-1 single cycle replication assay, WT virus. It is filed as cell-based. The settings on record: read-out: EC50 against WT virus.
Test [2] concerns HIV-1 K103N mutant virus in Hela P4/R5 cells. Briefly: HIV-1 single cycle replication assay, K103N mutant virus. It is filed as cell-based.
Test [3] relates to HIV-1 K103N/Y188F mutant virus in Hela P4/R5 cells. Nature of the test: HIV-1 single cycle replication assay, K103N/Y188F mutant virus. It is filed as cell-based.
In test [4] the test system is HIV-1 K103A mutant virus in Hela P4/R5 cells. Briefly: HIV-1 single cycle replication assay, K103A mutant virus. It is filed as cell-based.
The subject of test [5] is HIV-1 K103E mutant virus in Hela P4/R5 cells. Briefly: HIV-1 single cycle replication assay, K103E mutant virus. It is filed as cell-based.
Test [6] deals with HIV-1 Y181C mutant virus in Hela P4/R5 cells. Briefly: HIV-1 single cycle replication assay, Y181C mutant virus. It is filed as cell-based.
The test system of test [7] is HIV-1 Y188L mutant virus in Hela P4/R5 cells. Nature of the test: HIV-1 single cycle replication assay, Y188L mutant virus. It is filed as cell-based.
Test [8] deals with HIV-1 Y181F mutant virus in Hela P4/R5 cells. Nature of the test: HIV-1 single cycle replication assay, Y181F mutant virus. It is filed as cell-based.
The subject of test [9] is HIV-1 Y188F mutant virus in Hela P4/R5 cells. Briefly: HIV-1 single cycle replication assay, Y188F mutant virus. It is filed as cell-based.
Test [10] relates to HIV-1 Y181F/Y188F mutant virus in Hela P4/R5 cells. Briefly: HIV-1 single cycle replication assay, Y181F/Y188F mutant virus. It is filed as cell-based.
A further test deals with HIV-1 WT RT (non-bio-RT). Further details: method as in earlier work. The following applies: reported previously, read-out: Inhibitory potency IC50 versus WT RT (non-biotinylated); cited from earlier work.
Setting [11] is: Human immunodeficiency virus 1, read-out: EC50 against K103N mutant virus.
The mark [12] stands for this setting: Human immunodeficiency virus 1, read-out: EC50 against K103N/Y188F mutant virus.
[13] abbreviates: Human immunodeficiency virus 1, read-out: EC50 against K103A mutant virus.
The mark [14] stands for this setting: Human immunodeficiency virus 1, read-out: EC50 against K103E mutant virus.
The mark [15] stands for this setting: Human immunodeficiency virus 1, read-out: EC50 against Y181C mutant virus.
Where [16] appears, read: Human immunodeficiency virus 1, read-out: EC50 against Y188L mutant virus.
[17] abbreviates: Human immunodeficiency virus 1, read-out: EC50 against Y181F mutant virus.
Setting [18] is: Human immunodeficiency virus 1, read-out: EC50 against Y188F mutant virus.
Where [19] appears, read: Human immunodeficiency virus 1, read-out: EC50 against Y181F/Y188F mutant virus.
Where [20] appears, read: Human immunodeficiency virus 1, HXB2, single-cycle replication, Hela P4/R5 cells, 48 h, mean ± SD.

On to `CC(C)Nc1cccnc1N1CCN(C(=O)c2cc3cc(NS(C)(=O)=O)ccc3[nH]2)CC1` [DLV, delavirdine], for which the EC50 in [1] (Human immunodeficiency virus 1, HXB2, 48 h) turned out to be 26 ± 7 nM; in test [2] (setting [11]), 2600 ± 346 nM; in test [3] (setting [12]), 1500 ± 43 nM; in test [4] (setting [13]), 38 ± 12 nM; in [5] (setting [14]), 64 ± 7 nM; in test [6] (setting [15]), 1150 ± 301 nM. Besides, the EC50 in [7] (setting [16]) is 913 ± 90 nM; in test [8] (setting [17]) it was 8.6 ± 1.3 nM; in test [9] (setting [18]) it was 14 ± 4 nM; in test [10] (setting [19]), 4.1 ± 0.12 nM.

Regarding `O=C1Nc2ccc(Cl)cc2[C@@](C#CC2CC2)(C(F)(F)F)O1` [EFV, efavirenz], the EC50 in test [1] (setting [20]) stood at 1.2 nM; in [2] (setting [11]) it was 69 ± 5.7 nM; in test [3] (setting [12]), 40 ± 8.1 nM; in [4] (setting [13]), 2 ± 0.2 nM; in test [5] (setting [14]), 0.9 ± 0.3 nM; in test [6] (setting [15]), 1.4 ± 0.1 nM. Besides, the EC50 turned out to be 639 ± 63 nM in [7] (setting [16]), 0.5 ± 0.07 nM in test [8] (setting [17]), 0.3 ± 0.05 nM in test [9] (setting [18]) and 0.4 ± 0.1 nM in test [10] (setting [19]). Further, the “Y188F mutant virus more sensitive to inhibition than WT virus” value in test [9] (fold more sensitive than WT virus) is ~ 4 fold. In addition, the IC50 with HIV-1 WT RT (non-bio-RT) was 0.42 nM.

`Cc1ccnc2c1NC(=O)c1cccnc1N2C1CC1` [NVP, nevirapine]: the EC50 in [1] (setting [20]) was 95 ± 6 nM; in test [2] (Human immunodeficiency virus 1, single-cycle replication, Hela P4/R5 cells, mean ± SD, read-out: EC50 against K103N mutant virus), 5080 ± 1690 nM; in test [3] (Human immunodeficiency virus 1, single-cycle replication, Hela P4/R5 cells, mean ± SD, read-out: EC50 against K103N/Y188F mutant virus), 14500 nM; in [4] (Human immunodeficiency virus 1, single-cycle replication, Hela P4/R5 cells, mean ± SD, read-out: EC50 against K103A mutant virus), 216 ± 51 nM; in test [5] (Human immunodeficiency virus 1, single-cycle replication, Hela P4/R5 cells, mean ± SD, read-out: EC50 against K103E mutant virus) it was 65 ± 27 nM; in [6] (Human immunodeficiency virus 1, single-cycle replication, Hela P4/R5 cells, mean ± SD, read-out: EC50 against Y181C mutant virus), 2270 ± 197 nM. Also, the EC50 in test [7] (Human immunodeficiency virus 1, single-cycle replication, Hela P4/R5 cells, mean ± SD, read-out: EC50 against Y188L mutant virus) is above 25000 nM; in test [8] (Human immunodeficiency virus 1, single-cycle replication, Hela P4/R5 cells, mean ± SD, read-out: EC50 against Y181F mutant virus) it was 37 ± 7 nM; in test [9] (Human immunodeficiency virus 1, single-cycle replication, Hela P4/R5 cells, mean ± SD, read-out: EC50 against Y188F mutant virus), 62 ± 11 nM; in [10] (Human immunodeficiency virus 1, single-cycle replication, Hela P4/R5 cells, mean ± SD, read-out: EC50 against Y181F/Y188F mutant virus), 34 ± 2.5 nM. Besides, the IC50 in the test with HIV-1 WT RT (non-bio-RT) was 137 nM.
